This is an account of results in patent US20240252488A1 (KOREA RESEARCH INSTITUTE OF CHEMICAL TECHNOLOGY, priority 2020, published 2024).

Test [1] concerns FADD−/− Jurkat cells. Description: Necroptosis inhibition assay, TNF-α-induced necroptosis (CellTiter-Glo 2.0). The format is cell-based, human. Conditions: TNF-α 15 ng/mL; for Necroptosis inhibition assay (Rescue %) 1 μM: compound 1 μM; for Necroptosis inhibition assay (Rescue %) 10 μM: compound 10 μM. In outline: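 Tested at three fixed concentrations (0.1, 1, 10 μM final) with a 30-minute room-temperature preincubation ahead of 15 ng/mL TNF-α challenge lasting 20 to 24 hours. Inhibition rate and cytotoxicity derive from ATP luminescence.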
(In general: ATP-based viability assays read luminescence as a measure of living cells.)

Test [2] has as its target T1, MLKL (Homo sapiens, UniProt Q8NB16).
T1 sequence (Q8NB16 1-471): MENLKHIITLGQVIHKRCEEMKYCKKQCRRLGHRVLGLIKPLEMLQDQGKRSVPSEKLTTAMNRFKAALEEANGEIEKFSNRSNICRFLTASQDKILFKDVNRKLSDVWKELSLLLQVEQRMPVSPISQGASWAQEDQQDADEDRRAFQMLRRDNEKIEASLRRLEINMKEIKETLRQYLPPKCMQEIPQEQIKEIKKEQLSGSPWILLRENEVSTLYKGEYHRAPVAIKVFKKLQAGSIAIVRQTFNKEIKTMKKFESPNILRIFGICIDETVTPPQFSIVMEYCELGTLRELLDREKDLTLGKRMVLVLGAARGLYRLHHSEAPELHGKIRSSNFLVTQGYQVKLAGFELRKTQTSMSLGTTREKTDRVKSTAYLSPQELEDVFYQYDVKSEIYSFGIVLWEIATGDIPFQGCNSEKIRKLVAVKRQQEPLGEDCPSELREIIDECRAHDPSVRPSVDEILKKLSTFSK
Description: Measurement of binding affinity with MLKL receptor (competitive binding assay, Kd). Further details: made in house; host or cells: HEK 293 cell line (T7 phage in E. coli BL21-derived host is also described). In outline:
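Kd comes from a bead-based competition format: compound-dependent loss of DNA-tagged, HEK 293-expressed MLKL capture, measured as eluate kinase by qPCR. Final DMSO is 0.9%.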

In test [3] the target is T1, MLKL. Description: MLKL degradation assay in HepG2 cell line (western blot). The format is cell-based. Conditions: cell line not given; for Degradation assay (Degradation %) 1 μM: compound 1 μM; for Degradation assay (Degradation %) 10 μM: compound 10 μM. Also noted: endogenous in cells; host or cells: HepG2 or HaCaT. In outline: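 Degradation is judged from MLKL band intensity on immunoblots of HepG2 lysates taken after 20-24 hours of compound at final 1 or 10 μM.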

For orientation: Kd means a measure of binding affinity in units of concentration. A higher Kd goes with a looser complex. In the case of `Nc1ncc(-c2cnn([C@H]3CCN(CCOCCOCCNC(=O)CNc4ccc5c(c4)C(=O)N(C4CCC(=O)NC4=O)C5=O)C3)c2)nc1C(=O)OC(C(=O)Nc1ccc(F)cc1)c1ccccc1` (stereo partly drawn) [TDH-264, 2-((4-fluorophenyl)amino)-2-oxo-1-phenylethyl 3-amino-6-(1-((3S)-1-(2-(2-(2-(2-((2-(2,6-dioxopiperidin-3-yl)-1,3-dioxoisoindolin-5-yl)amino)acetamido)ethoxy)ethoxy)ethyl)pyrrolidin-3-yl)-1H-pyrazol-4-yl)pyrazine-2-carboxylate], in test [1], the “Necroptosis inhibition assay (Rescue %) 1 μM” value worked out at 23.38% and the “Necroptosis inhibition assay (Rescue %) 10 μM” value is given as 40.72%. The compound also had a Kd in test [2] of 3.4 nM. In addition, in test [3], the “Degradation assay (Degradation %) 1 μM” value is listed as 65.05% and the “Degradation assay (Degradation %) 10 μM” value is reported as 53.98%.
`Nc1ncc(-c2cnn(C3CCN(CCC4CCN(C(=O)CC5CCN(c6ccc7c(c6)C(=O)N(C6CCC(=O)NC6=O)C7=O)CC5)CC4)CC3)c2)nc1C(=O)O[C@@H](C(=O)Nc1ccc(F)cc1)c1ccccc1` (stereo partly drawn) [TDH-367, (R)-2-((4-fluorophenyl)amino)-2-oxo-1-phenylethyl 3-amino-6-(1-(1-(2-(1-(2-(1-(2-(2,6-dioxopiperidin-3-yl)-1,3-dioxoisoindolin-5-yl)piperidin-4-yl)acetyl)piperidin-4-yl)ethyl)piperidin-4-yl)-1H-pyrazol-4-yl)pyrazine-2-carboxylate]: in test [1], the “Necroptosis inhibition assay (Rescue %) 1 μM” value is reported as 36.86% and the “Necroptosis inhibition assay (Rescue %) 10 μM” value came to 21.34%. The same compound came in with a Kd in test [2] of 0.82 nM. In addition, in test [3], the “Degradation assay (Degradation %) 1 μM” value is on record as 84.28% and the “Degradation assay (Degradation %) 10 μM” value is reported as 80.64%.
Turning to `Nc1ncc(-c2cnn(C3CCN(C4CC5(CCN(CC6CCN(C(=O)c7ccc(C(=O)NC8CCC(=O)NC8=O)cc7)CC6)CC5)C4)CC3)c2)nc1C(=O)O[C@@H](C(=O)Nc1ccc(F)cc1)c1ccccc1` (stereo partly drawn) [TDH-537, (R)-2-((4-fluorophenyl)amino)-2-oxo-1-phenylethyl 3-amino-6-(1-(1-(7-((1-(4-((2,6-dioxopiperidin-3-yl)carbamoyl)benzoyl)piperidin-4-yl)methyl)-7-azaspiro[3.5]nonan-2-yl)piperidin-4-yl)-1H-pyrazol-4-yl)pyrazine-2-carboxylate], in test [1] (FADD−/− Jurkat cells), the “Necroptosis inhibition assay (Rescue %) 1 μM” value was determined as 32.07% and the “Necroptosis inhibition assay (Rescue %) 10 μM” value was 30.76%. In addition, binding in test [2] was put at a Kd of 0.61 nM. Also, in test [3], the “Degradation assay (Degradation %) 1 μM” value is reported as 64.82% and the “Degradation assay (Degradation %) 10 μM” value was 86.14%.
Consider `Nc1ncc(-c2cnn(C3CCN(C(=O)COC4CCN(C(=O)C5CCN(c6ccc7c(c6)C(=O)N(C6CCC(=O)NC6=O)C7=O)CC5)CC4)CC3)c2)nc1C(=O)O[C@@H](C(=O)Nc1ccc(F)cc1)c1ccccc1` (stereo partly drawn) [TDH-398, (R)-2-((4-fluorophenyl)amino)-2-oxo-1-phenylethyl 3-amino-6-(1-(1-(2-((1-(1-(2-(2,6-dioxopiperidin-3-yl)-1,3-dioxoisoindolin-5-yl)piperidine-4-carbonyl)piperidin-4-yl)oxy)acetyl)piperidin-4-yl)-1H-pyrazol-4-yl)pyrazine-2-carboxylate], for which, in test [1], the “Necroptosis inhibition assay (Rescue %) 1 μM” value worked out at 36.81% and the “Necroptosis inhibition assay (Rescue %) 10 μM” value came to 30.39%. The Kd in test [2] stood at 8.9 nM. In addition, in test [3], the “Degradation assay (Degradation %) 1 μM” value worked out at 88.25% and the “Degradation assay (Degradation %) 10 μM” value is 83.83%.
For `Nc1ncc(-c2cnn(C3CCN(CC4CCN(CC(=O)NCCCNc5cccc6c5C(=O)N(C5CCC(=O)NC5=O)C6=O)CC4)CC3)c2)nc1C(=O)OC(C(=O)Nc1ccc(F)cc1)c1ccccc1` (stereo not drawn) [TDH-235, 2-((4-fluorophenyl)amino)-2-oxo-1-phenylethyl 3-amino-6-(1-(1-((1-(2-((3-((2-(2,6-dioxopiperidin-3-yl)-1,3-dioxoisoindolin-4-yl)amino)propyl)amino)-2-oxoethyl)piperidin-4-yl)methyl)piperidin-4-yl)-1H-pyrazol-4-yl)pyrazine-2-carboxylate] the same measures were 7.64%, 19.27%, 8.5 nM, 45.01% and 49.89%.
Consider `Nc1ncc(-c2cnn(C3CCN(C4CC5(CCN(CC6CCN(C(=O)Cc7cccc(NC8=CC(=O)N(C9CCC(=O)NC9=O)C8=O)c7)CC6)CC5)C4)CC3)c2)nc1C(=O)O[C@@H](C(=O)Nc1ccc(F)cc1)c1ccccc1` (stereo partly drawn) [TDH-500, (R)-2-((4-fluorophenyl)amino)-2-oxo-1-phenylethyl 3-amino-6-(1-(1-(7-((1-(2-(3-((1-(2,6-dioxopiperidin-3-yl)-2,5-dioxo-2,5-dihydro-1H-pyrrol-3-yl)amino)phenyl)acetyl)piperidin-4-yl)methyl)-7-azaspiro[3.5]nonan-2-yl)piperidin-4-yl)-1H-pyrazol-4-yl)pyrazine-2-carboxylate], for which, in test [1] (FADD−/− Jurkat cells), the “Necroptosis inhibition assay (Rescue %) 1 μM” value came out at 25.16% and the “Necroptosis inhibition assay (Rescue %) 10 μM” value is listed as 0.16%. This compound also displayed a dissociation constant Kd in test [2] of 0.64 nM. Further, in test [3], the “Degradation assay (Degradation %) 1 μM” value is given as 80.41% and the “Degradation assay (Degradation %) 10 μM” value came out at 83.21%.
For the compound `Nc1ncc(-c2cnn(C3CCN(CC4CCN(CC(=O)NC5CCN(c6ccc7c(c6)C(=O)N(C6CCC(=O)NC6=O)C7=O)CC5)CC4)CC3)c2)nc1C(=O)OC(C(=O)Nc1ccc(F)cc1)c1ccccc1` (stereo not drawn) [TDH-272, 2-((4-fluorophenyl)amino)-2-oxo-1-phenylethyl 3-amino-6-(1-(1-((1-(2-((1-(2-(2,6-dioxopiperidin-3-yl)-1,3-dioxoisoindolin-5-yl)piperidin-4-yl)amino)-2-oxoethyl)piperidin-4-yl)methyl)piperidin-4-yl)-1H-pyrazol-4-yl)pyrazine-2-carboxylate], in test [1], the “Necroptosis inhibition assay (Rescue %) 1 μM” value worked out at 60.73% and the “Necroptosis inhibition assay (Rescue %) 10 μM” value was found to be 72.92%. This compound also displayed a Kd in test [2] of 13 nM. Further, in test [3], the “Degradation assay (Degradation %) 1 μM” value turned out to be 23.54% and the “Degradation assay (Degradation %) 10 μM” value was 44.2%.
Regarding `Nc1ncc(-c2cnn(C3CCN(CCC4CCN(C(=O)c5ccc(C(=O)NC6CCC(=O)NC6=O)cc5)CC4)CC3)c2)nc1C(=O)O[C@@H](C(=O)Nc1ccc(F)cc1)c1ccccc1` (stereo partly drawn) [TDH-536, (R)-2-((4-fluorophenyl)amino)-2-oxo-1-phenylethyl 3-amino-6-(1-(1-(2-(1-(4-((2,6-dioxopiperidin-3-yl)carbamoyl)benzoyl)piperidin-4-yl)ethyl)piperidin-4-yl)-1H-pyrazol-4-yl)pyrazine-2-carboxylate], in test [1] (FADD−/− Jurkat cells), the “Necroptosis inhibition assay (Rescue %) 1 μM” value turned out to be 31.84% and the “Necroptosis inhibition assay (Rescue %) 10 μM” value was found to be 21.93%. The affinity in test [2], expressed as Kd, was 0.22 nM. Besides, in test [3], the “Degradation assay (Degradation %) 1 μM” value is 46.11% and the “Degradation assay (Degradation %) 10 μM” value is 56.40%.
For the compound `Nc1ncc(-c2cnn(C3CCN(CCOCCNC(=O)CNc4ccc5c(c4)C(=O)N(C4CCC(=O)NC4=O)C5=O)CC3)c2)nc1C(=O)O[C@@H](C(=O)Nc1ccc(F)cc1)c1ccccc1` (stereo partly drawn) [TDH-125, (R)-2-((4-fluorophenyl)amino)-2-oxo-1-phenylethyl 3-amino-6-(1-(1-(2-(2-(2-((2-(2,6-dioxopiperidin-3-yl)-1,3-dioxoisoindolin-5-yl)amino)acetamido)ethoxy)ethyl)piperidin-4-yl)-1H-pyrazol-4-yl)pyrazine-2-carboxylate], in test [1], the “Necroptosis inhibition assay (Rescue %) 1 μM” value is 21.27% and the “Necroptosis inhibition assay (Rescue %) 10 μM” value is 54.55%. This compound gave a Kd in test [2] of 3.2 nM. In test [3], the “Degradation assay (Degradation %) 1 μM” value is given as 30.1% and the “Degradation assay (Degradation %) 10 μM” value is on record as 69.02%.
